In patent publication US20150164762A1, “USE OF ETHANOLAMINE PHOSPHATE” (priority 2012, published 2015):

System: BEAS-2B
Assay: Comprehensive gene expression analysis with Whole Human Genome DNA microarray after EP treatment
Assay type: cell-based
Experimental: Cells of the established normal human airway epithelial cell line BEAS-2B were used in the experiment. These cells were expansively cultured in 10% FBS RPMI-1640, and seeded at a density of 1×10^5/cm^2 on a 24-well plate. After 24 hours 0.1% FBS RPMI-1640 was substituted, and EP was administered to a final concentration of 0 or 1 mM (n=4). After 24 hours, the cells were used as the DNA microarray samples. RNA was extracted using a QIAGEN RNeasy Mini Kit. The DNA microarray test was performed using a Whole Human Genome DNA microarray 4×44K (Agilent), and the necessary labeling reagents and the like for the DNA microarray test were all from Agilent. The DNA microarray test data were analyzed statistically with GeneSpring (Agilent) dedicated analysis software, and gene function analysis (Gene Ontology (GO) analysis) was performed based on differential expression. The purpose of the GO analysis is to determine stochastically the degree to which gene sets with statistically significant differential expression correspond to known functional classification gene sets. […] The p-value is calculated according to the following formula.

SMILES: NCCOP(=O)(O)O [EP, Ethanolamine phosphate]
- expression of cytokines (1 mM EP, 24 h): reduced expression of many cytokines
- R*: Ratio to control (AEN, probe A_23_P206077): 0.420 times
- log2 [ratio] (AEN, probe A_23_P206077): −1.253
- R*: Ratio to control (AGGF1, probe A_23_P250554): 1.523 times
- log2 [ratio] (AGGF1, probe A_23_P250554): 0.607
- R*: Ratio to control (AIFM2, probe A_32_P75094): 0.399 times
- log2 [ratio] (AIFM2, probe A_32_P75094): −1.327
- R*: Ratio to control (AIFM3, probe A_23_P258194): 0.590 times
- log2 [ratio] (AIFM3, probe A_23_P258194): −0.761
- R*: Ratio to control (ANXA2, probe A_23_P146644): 1.673 times
- log2 [ratio] (ANXA2, probe A_23_P146644): 0.742
- R*: Ratio to control (ANXA2, probe A_32_P94798): 1.614 times
- log2 [ratio] (ANXA2, probe A_32_P94798): 0.691
- R*: Ratio to control (APAF1, probe A_23_P36611): 0.420 times
- log2 [ratio] (APAF1, probe A_23_P36611): −1.253
- R*: Ratio to control (APPL1, probe A_24_P302833): 1.723 times
- log2 [ratio] (APPL1, probe A_24_P302833): 0.785
- R*: Ratio to control (ARHGAP24, probe A_23_P110151): 1.670 times
- log2 [ratio] (ARHGAP24, probe A_23_P110151): 0.740
- R*: Ratio to control (ARHGAP24, probe A_24_P388659): 1.745 times
- log2 [ratio] (ARHGAP24, probe A_24_P388659): 0.803
- R*: Ratio to control (ARHGEF6, probe A_23_P85024): 0.270 times
- log2 [ratio] (ARHGEF6, probe A_23_P85024): −1.889
- R*: Ratio to control (BAK1, probe A_23_P145357): 0.402 times
- log2 [ratio] (BAK1, probe A_23_P145357): −1.313
- R*: Ratio to control (BAX, probe A_23_P208706): 0.453 times
- log2 [ratio] (BAX, probe A_23_P208706): −1.143
- R*: Ratio to control (BAX, probe A_23_P346311): 0.511 times
- log2 [ratio] (BAX, probe A_23_P346311): −0.969
- R*: Ratio to control (BBC3, probe A_23_P382775): 0.315 times
- log2 [ratio] (BBC3, probe A_23_P382775): −1.666
- R*: Ratio to control (BBC3, probe A_24_P305312): 0.366 times
- log2 [ratio] (BBC3, probe A_24_P305312): −1.452
- R*: Ratio to control (BCAT1, probe A_24_P935986): 1.721 times
- log2 [ratio] (BCAT1, probe A_24_P935986): 0.783
- R*: Ratio to control (BCL2L11, probe A_24_P122921): 0.636 times
- log2 [ratio] (BCL2L11, probe A_24_P122921): −0.652
- R*: Ratio to control (BCL2L14, probe A_23_P128050): 0.594 times
- log2 [ratio] (BCL2L14, probe A_23_P128050): −0.751
- R*: Ratio to control (BCL10, probe A_23_P115286): 0.542 times
- log2 [ratio] (BCL10, probe A_23_P115286): −0.883
- R*: Ratio to control (BCL10, probe A_24_P19983): 0.571 times
- log2 [ratio] (BCL10, probe A_24_P19983): −0.810
- R*: Ratio to control (BIK, probe A_23_P404867): 0.298 times
- log2 [ratio] (BIK, probe A_23_P404867): −1.748
- R*: Ratio to control (BLOC1S2, probe A_23_P23960): 0.396 times
- log2 [ratio] (BLOC1S2, probe A_23_P23960): −1.336
- R*: Ratio to control (BLOC1S2, probe A_24_P295543): 0.384 times
- log2 [ratio] (BLOC1S2, probe A_24_P295543): −1.381
- R*: Ratio to control (BMP4, probe A_23_P54144): 1.820 times
- log2 [ratio] (BMP4, probe A_23_P54144): 0.864
- R*: Ratio to control (BNIP3, probe A_23_P138635): 0.374 times
- log2 [ratio] (BNIP3, probe A_23_P138635): −1.418
- R*: Ratio to control (BNIP3L, probe A_23_P134925): 0.633 times
- log2 [ratio] (BNIP3L, probe A_23_P134925): −0.661
- R*: Ratio to control (BTG1, probe A_23_P87560): 0.416 times
- log2 [ratio] (BTG1, probe A_23_P87560): −1.265
- R*: Ratio to control (C16orf5, probe A_23_P15247): 0.519 times
- log2 [ratio] (C16orf5, probe A_23_P15247): −0.947
- R*: Ratio to control (CASP1, probe A_23_P202978): 0.641 times
- log2 [ratio] (CASP1, probe A_23_P202978): −0.642
- R*: Ratio to control (CASP10, probe A_23_P209408): 0.552 times
- log2 [ratio] (CASP10, probe A_23_P209408): −0.857
- R*: Ratio to control (CASP10, probe A_24_P139993): 0.609 times
- log2 [ratio] (CASP10, probe A_24_P139993): −0.716
- R*: Ratio to control (CCBE1, probe A_23_P55544): 1.755 times
- log2 [ratio] (CCBE1, probe A_23_P55544): 0.811
- R*: Ratio to control (CCBE1, probe A_32_P171043): 1.890 times
- log2 [ratio] (CCBE1, probe A_32_P171043): 0.918
- R*: Ratio to control (CDKN1A, probe A_23_P59210): 0.439 times
- log2 [ratio] (CDKN1A, probe A_23_P59210): −1.187
- R*: Ratio to control (CDKN1A, probe A_24_P89457): 0.294 times
- log2 [ratio] (CDKN1A, probe A_24_P89457): −1.768
